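Method: 48-hour compound exposure of cells in 96-well plates, five concentrations, linear interpolation of endpoints. GI50: concentration for 50% inhibition of growth. TGI: concentration producing complete growth inhibition.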
Legend:
Assay in all cases: NCI-60 cell line screen, 48 h
A549 NSCLC = test system: A549 NSCLC
EKVX NSCLC = test system: EKVX NSCLC
K-562 leukemia = test system: K-562 leukemia
LOX IMVI melanoma = test system: LOX IMVI melanoma
MCF7 breast = test system: MCF7 breast
MDA-MB-231 breast = test system: MDA-MB-231 breast
MDA-MB-435 = test system: MDA-MB-435
OVCAR-3 ovarian = test system: OVCAR-3 ovarian
SK-MEL-2 melanoma = test system: SK-MEL-2 melanoma
TK-10 renal = test system: TK-10 renal

| Compound | GI50 (A549 NSCLC) [µM] | TGI (A549 NSCLC) [µM] | GI50 (EKVX NSCLC) [µM] | TGI (EKVX NSCLC) [µM] | GI50 (K-562 leukemia) [µM] | TGI (K-562 leukemia) [µM] | GI50 (LOX IMVI melanoma) [µM] | TGI (LOX IMVI melanoma) [µM] | GI50 (MCF7 breast) [µM] | TGI (MCF7 breast) [µM] | GI50 (MDA-MB-231 breast) [µM] | TGI (MDA-MB-231 breast) [µM] | GI50 (MDA-MB-435) [µM] | TGI (MDA-MB-435) [µM] | GI50 (OVCAR-3 ovarian) [µM] | TGI (OVCAR-3 ovarian) [µM] | GI50 (SK-MEL-2 melanoma) [µM] | TGI (SK-MEL-2 melanoma) [µM] | GI50 (TK-10 renal) [µM] | TGI (TK-10 renal) [µM] |
| --- | --- | --- | --- | --- | --- | --- | --- | --- | --- | --- | --- | --- | --- | --- | --- | --- | --- | --- | --- | --- |
| Cc1cnc(C(=O)Nc2nc3ccc(S(=O)(=O)Nc4ccc(C(C)(C)C)cc4)cc3[nH]2)cn1 | 0.652 | 9.14 | 0.789 | 14 | 0.314 | 5.71 | 0.79 | 13.1 | 0.338 | 11.3 | 1.41 | 10.7 | 0.135 | 0.434 | 0.308 | 1.32 | 1.26 | 17.3 | 2.53 | 15.2 |
| NS(=O)(=O)c1cccc(Nc2cc(-c3ccc(F)cc3)[nH]n2)c1 | > 24.1 | > 25 | > 25 | > 25 | > 25 | > 25 | 20.7 | > 25 | 20.4 | > 25 | > 25 | > 25 | > 25 | > 25 | 19.5 | > 25 | 16.1 | > 25 | 20.3 | > 25 |
| COc1cc([C@H]2OC[C@@H]3C(c4cc(OC)c5c(c4)OCO5)OC[C@H]23)cc(OC)c1OC (some centres undefined) | – | > 100 | – | > 100 | – | > 100 | – | > 100 | – | > 100 | – | > 100 | – | > 100 | – | > 100 | – | > 100 | – | > 100 |
| COc1ccc(/C(=C(\c2ccccc2)[N+](=O)[O-])c2ccc(OCCN3CCCC3)cc2)cc1 | 4.68 | 17.3 | 7.29 | 21.5 | 1.1 | 6.14 | 2.05 | 6.73 | 0.194 | 3.63 | 2.76 | 6.98 | 2.85 | 10.5 | 3.93 | 16.2 | 2.06 | 5.06 | 5.17 | 20.1 |
| Nc1nc(SCC#CCCl)c2[nH]cnc2n1 | 7.04 | 19.8 | 3.22 | 15.4 | 4.5 | 40.5 | 2.97 | 11.8 | 4.12 | 16.3 | 6.26 | 21.4 | 3.81 | 18.6 | 3.27 | 10.9 | 4.92 | 23.3 | 1.87 | 11.1 |
| COc1cc(OC)c(/C=C/S(=O)(=O)Cc2ccc(OC)c(N)n2)c(OC)c1 | < 0.01 | > 100 | 0.0278 | > 100 | < 0.01 | > 100 | < 0.01 | > 100 | < 0.01 | > 100 | < 0.0248 | > 100 | < 0.01 | < 0.01 | < 0.01 | < 0.01 | – | > 100 | > 100 | > 100 |

From PubChem BioAssay (NCI)
